Reference: patent US20130158063A1, “Compounds, Compositions and Methods Related to PPAR Antagonists” (GEORGETOWN UNIVERSITY, priority 2010, published 2013)
Entries after “also recorded” stand apart in the source; their conditions may differ.

Assays:
[1] = test system: PPARα, PPARγ, PPARδ; experiment: PPAR reporter assays, isotype profile over the three PPARs; conditions: for PPAR inhibitor type (Table 1): from reporter data
[2] = test system: Mouse mammary tumor cell lines MC, 437T, 105T and 34T; Comma1D mammary epithelial cell line; experiment: Cytotoxicity against mammary cell lines; assay type: cell-based; conditions: 0-25 μM BTB07995, with and without GW501516
Source text: Mouse mammary tumor cell lines MC, 437T, 105T and 34T were generated from primary DMBA-induced tumors in wild-type FVB, MMTV-Pax8PPARγ transgenic, Sca-1 null and Sca-1+/EGFP mice. Comma1D is an immortalized mammary epithelial cell line.

[3] = biological target: T1, PPARδ (Homo sapiens, UniProt Q03181); conditions: cited from earlier work
T1 construct: purchased Cayman Chemicals
T1 sequence (Q03181 1-441): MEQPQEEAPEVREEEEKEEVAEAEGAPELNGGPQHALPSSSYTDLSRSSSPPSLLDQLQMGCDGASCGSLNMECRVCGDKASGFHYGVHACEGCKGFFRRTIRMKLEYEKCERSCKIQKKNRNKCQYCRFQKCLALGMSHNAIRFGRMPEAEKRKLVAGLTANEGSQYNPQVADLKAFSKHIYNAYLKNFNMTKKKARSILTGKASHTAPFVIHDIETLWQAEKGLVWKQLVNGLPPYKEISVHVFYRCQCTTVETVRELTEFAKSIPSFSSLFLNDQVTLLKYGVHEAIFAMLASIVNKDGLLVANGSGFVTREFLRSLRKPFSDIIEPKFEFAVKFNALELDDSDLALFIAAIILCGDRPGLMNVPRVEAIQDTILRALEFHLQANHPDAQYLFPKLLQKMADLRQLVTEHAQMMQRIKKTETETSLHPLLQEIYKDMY

[4] = test system: PPARα; experiment: PPAR reporter assay in 293T cells, PPARα (agonist WY14643); assay type: cell-based; conditions: 1 μM agonist WY14643
[5] = biological target: T2, PPARγ (Mus musculus, UniProt P37238); experiment: PPAR reporter assay in 293T cells, PPARγ (agonist GW7845); assay type: cell-based; conditions: HEK-293T, 1 μM agonist GW7845, 293T cells, read-out: Reporter assay (% inhibition), γ; for inhibition at 25 µM: 25 μM compound
T2 construct: expressed in transfected cells; host or cells: 293T cells
T2 sequence (P37238 1-505): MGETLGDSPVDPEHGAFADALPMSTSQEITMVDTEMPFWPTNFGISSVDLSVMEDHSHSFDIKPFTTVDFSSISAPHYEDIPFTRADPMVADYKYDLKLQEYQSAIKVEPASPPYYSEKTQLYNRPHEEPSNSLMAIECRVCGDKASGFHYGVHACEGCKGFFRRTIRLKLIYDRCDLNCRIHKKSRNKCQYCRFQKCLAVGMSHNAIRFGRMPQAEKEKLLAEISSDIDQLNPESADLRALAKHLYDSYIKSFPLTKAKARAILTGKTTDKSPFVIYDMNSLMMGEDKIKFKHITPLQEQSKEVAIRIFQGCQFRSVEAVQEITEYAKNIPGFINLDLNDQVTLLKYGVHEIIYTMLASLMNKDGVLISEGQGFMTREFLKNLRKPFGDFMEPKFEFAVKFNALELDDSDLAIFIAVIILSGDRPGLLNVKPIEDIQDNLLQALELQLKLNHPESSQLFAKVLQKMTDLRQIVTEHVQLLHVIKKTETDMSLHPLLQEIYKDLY

[6] = test system: PPARδ; experiment: PPAR reporter assay in 293T cells, PPARδ (agonist GW501516); assay type: cell-based; conditions: 1 μM agonist GW501516
[7] = biological target: T1, PPARδ; experiment: Fluorescent Polarization (FP) binding assay with corepressor peptides, PPARδ; conditions: Nb = no binding
Experimental: (§1) For PPARγ screening, a fluorescent ligand supplied by Cayman Chemicals was also used. All compounds were dissolved in DMSO as 10 mM stock solutions and the final DMSO content in the assay was <1%. A TECAN Ultra 485 multi-functional microplate reader and GraphPad prism 4 software were used for measurements and analysis, respectively.
(§2) PPAR antagonists are expected to enhance the affinities of the corepressor peptides, and therefore, FP should increase as the compound concentration increases. Agonists would be expected to weaken the affinity of the same co-repressor peptide. Although this effect occurs for PPARγ, the dissociation of corepressor peptides varies for PPARα and PPARδ due to altered presentations of the overlapping coactivator/corepressor binding surfaces (Stanley T. B. et al. Biochemistry 42:9278-87, 2003). Compounds were screened initially against PPARγ and PPARδ at 1 and 100 μM. If binding was observed, titration experiments from 10 nM to 100 μM were carried out in triplicate with all three PPARs. […] For screening, either enhancement or weakening of FP was considered active.
(§3) Virtual screening for PPARγ was conducted against 56,000 compounds from the Maybridge library that targeted the ligand binding domain (LBD) of PPARγ, and 10 conformations of each compound were docked to the LBD using Autdock4 software (Scripps Institute). Sixty of the top ranked compounds were ordered from Maybridge, and 58 were available for evaluation. Fluorescent Polarization (FP) assays were established with the tagged co-repressor peptides NCoR1 and SMRT, the recombinant PPARα and PPARγ ligand-binding domains and full-length PPARδ. […] Sd-107 and its analogs are disclosed herein. The chemical structure is shown below.

[8] = biological target: T3, PPARα (Homo sapiens, UniProt Q07869); experiment: Fluorescent Polarization (FP) binding assay with corepressor peptides, PPARα; conditions: Nb = no binding
T3 construct: purchased Cayman Chemicals
T3 sequence (Q07869 239-466 limits assumed): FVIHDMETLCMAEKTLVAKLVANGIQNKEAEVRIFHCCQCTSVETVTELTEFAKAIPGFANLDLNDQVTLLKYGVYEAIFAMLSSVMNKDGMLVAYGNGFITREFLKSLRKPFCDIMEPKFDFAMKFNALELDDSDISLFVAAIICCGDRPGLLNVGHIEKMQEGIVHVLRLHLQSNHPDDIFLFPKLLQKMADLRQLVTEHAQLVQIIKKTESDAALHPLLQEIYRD
Experimental: as §1, §2, §3

[9] = biological target: T4, PPARγ (Homo sapiens, UniProt P37231); experiment: Fluorescent Polarization (FP) binding assay with corepressor peptides, PPARγ; conditions: FP assay; Nb = no binding; read-out: Binding assay EC50, γ
T4 construct: purchased Cayman Chemicals
T4 sequence (P37231 238-503 limits assumed): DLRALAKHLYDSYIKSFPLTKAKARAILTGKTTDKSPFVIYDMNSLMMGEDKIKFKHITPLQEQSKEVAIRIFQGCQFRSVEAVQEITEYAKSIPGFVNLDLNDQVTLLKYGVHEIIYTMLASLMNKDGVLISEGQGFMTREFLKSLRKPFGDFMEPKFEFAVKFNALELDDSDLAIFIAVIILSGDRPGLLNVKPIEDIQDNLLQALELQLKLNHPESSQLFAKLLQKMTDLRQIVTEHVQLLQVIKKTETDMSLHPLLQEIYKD
Experimental: as §1, §2, §3

inhibition at 1 µM ([5]; 1 μM compound) [%] | inhibition at 10 µM ([5]; 10 μM compound) [%] | inhibition at 25 µM [5] [%] | Binding assay EC50, δ [7] | Binding assay EC50, α [8] | EC50 [9] [µM] | Structure (SMILES) | Agonist activity in Gal4-mPPAR reporter assays ([1]; 293T cells, 24 hr, absence of specific ligand) | PPAR isotype selectivity in reporter assays ([1]; inhibition of activation by 1 μM agonist) | Cytotoxicity to mouse mammary cell lines [2] | PPARδ ligand potency and selectivity (literature) [3] | Reporter assay (% inhibition), α ([4]; 1 μM compound) [%] | Reporter assay (% inhibition), α ([4]; 10 μM compound) [%] | Reporter assay (% inhibition), α ([4]; 25 μM compound) [%] | PPAR inhibitor type (Table 1) [1] | Reporter assay (% inhibition), δ ([6]; 1 μM compound) [%] | Reporter assay (% inhibition), δ ([6]; 10 μM compound) [%] | Reporter assay (% inhibition), δ ([6]; 25 μM compound) [%]
– | – | – | – | – | – | O=C(NCCS(=O)(=O)c1ccc(C(F)(F)F)cn1)c1ccc(Cl)cc1 [BTB07995, reference compound] | not an agonist for PPARα, PPARδ and PPARγ | PPARδ selectivity at lower concentrations; also recorded: selective antagonist of PPARδ | not cytotoxic | potent and selective ligand for PPARδ | – | – | – | – | – | – | –
0 | 23 | 67 | δ nb | nb | 1.4 | CC(C)(C)c1ccc(S(=O)(=O)N(NC(=O)c2ccc(Cl)cc2)C(=O)c2ccc(Cl)cc2)cc1 [YL-1-68-2] | – | – | – | – | 16 | 23 | 57 | Pan inhibitor | 0 | 18 | 46
– | – | 32 | δ nb | nb | 15.2 | O=C(NN(C(=O)c1ccc(Cl)cc1)S(=O)(=O)c1ccc(C(F)(F)F)cc1)c1ccc(Cl)cc1 [YL-1-81] | – | – | – | – | – | – | 8 | PPARγ/δ inhibitor | – | – | 46
